In brackets after ≈: the same amount, converted by molar mass.
Key:
Type in all cases: functional
[1] = system: Mycobacterium tuberculosis; test: Antitubercular activity against Mycobacterium tuberculosis H37Rv at 6.25 ug/ml by microplate alamar blue assay
[2] = system: Mycobacterium tuberculosis; test: Antitubercular activity against Mycobacterium tuberculosis H37Rv by twofold dilution method
[3] = Selectivity index, ratio of IC50 for african green monkey Vero cells to MIC for Mycobacterium tuberculosis H37Rv

Row | SMILES | inhibition at 6.25 µg/mL [1] [%] | MIC [2] [µg/mL] | Selectivity Index [3]
1 | CCOC(=O)C1=C(C)NC(=O)NC1c1cn(-c2ccccc2)nc1-c1ccc(C)cc1 (centres undefined) | 68 |  | 
2 | COC(=O)C1=C(C)NC(=S)NC1c1cn(-c2ccccc2)nc1-c1ccc(Br)cc1 (centres undefined) | 43 |  | 
3 | COC(=O)C1=C(C)NC(=S)NC1c1cn(-c2ccccc2)nc1-c1ccc([N+](=O)[O-])cc1 (centres undefined) | 91 | 3.13 (≈ 6.96 µM) | 3
4 | COC(=O)C1=C(C)NC(=S)NC1c1cn(-c2ccccc2)nc1-c1ccc(C)cc1 (centres undefined) | 46 |  | 
5 | COC(=O)C1=C(C)NC(=O)NC1c1cn(-c2ccccc2)nc1-c1ccc(F)cc1 (centres undefined) | 62 |  | 
6 | COC(=O)C1=C(C)NC(=O)NC1c1cn(-c2ccccc2)nc1-c1ccc(Cl)cc1 (centres undefined) | 75 |  | 
7 | COC(=O)C1=C(C)NC(=O)NC1c1cn(-c2ccccc2)nc1-c1ccc(Br)cc1 (centres undefined) | 90 | 6.25 (≈ 13.4 µM) | >1.6
8 | COC(=O)C1=C(C)NC(=O)NC1c1cn(-c2ccccc2)nc1-c1ccc([N+](=O)[O-])cc1 (centres undefined) | 39 |  | 
9 | CCOC(=O)C1=C(C)NC(SC)NC1c1cn(-c2ccccc2)nc1-c1ccc(F)cc1 (centres undefined) | 8 |  | 
10 | CCOC(=O)C1=C(C)NC(SC)NC1c1cn(-c2ccccc2)nc1-c1ccc(Cl)cc1 (centres undefined) | 13 |  | 
11 | CCOC(=O)C1=C(C)NC(SC)NC1c1cn(-c2ccccc2)nc1-c1ccc(Br)cc1 (centres undefined) | 13 |  | 
12 | CCOC(=O)C1=C(C)NC(SC)NC1c1cn(-c2ccccc2)nc1-c1ccc([N+](=O)[O-])cc1 (centres undefined) | 37 |  | 
13 | CCOC(=O)C1=C(C)NC(SC)NC1c1cn(-c2ccccc2)nc1-c1ccc(C)cc1 (centres undefined) | 97 | 1.56 (≈ 3.48 µM) | 4.7
14 | CCOC(=O)C1=C(C)NC(=O)NC1c1cn(-c2ccccc2)nc1-c1ccc([N+](=O)[O-])cc1 (centres undefined) | 100 | 0.02 (≈ 0.0447 µM) | >500
15 | CCOC(=O)C1=C(C)NC(=N)NC1c1cn(-c2ccccc2)nc1-c1ccc([N+](=O)[O-])cc1 (centres undefined) | 58 |  | 
16 | CCOC(=O)C1=C(C)NC(=S)NC1c1cn(-c2ccccc2)nc1-c1ccc(Cl)cc1 (centres undefined) | 75 |  | 

Row | SMILES | inhibition at 6.25 µg/mL [1] [%] | MIC [2] [µg/mL] | Selectivity Index [3]
17 | CCOC(=O)C1=C(C)NC(=S)NC1c1cn(-c2ccccc2)nc1-c1ccc(Br)cc1 (centres undefined) | 87 |  | 
18 | COC(=O)C1=C(C)NC(=O)NC1c1cn(-c2ccccc2)nc1-c1ccc(C)cc1 (centres undefined) | 98 | 1.56 (≈ 3.88 µM) | >6.4
19 | CCOC(=O)C1=C(C)NC(=O)NC1c1cn(-c2ccccc2)nc1-c1ccc(F)cc1 (centres undefined) | 100 | 0.02 (≈ 0.0476 µM) | >500
20 | CCOC(=O)C1=C(C)NC(=O)NC1c1cn(-c2ccccc2)nc1-c1ccc(Cl)cc1 (centres undefined) | 49 |  | 
21 | CCOC(=O)C1=C(C)NC(=O)NC1c1cn(-c2ccccc2)nc1-c1ccc(Br)cc1 (centres undefined) | 33 |  | 
22 | CCOC(=O)C1=C(C)NC(=S)NC1c1cn(-c2ccccc2)nc1-c1ccc(F)cc1 (centres undefined) | 30 |  | 
23 | CCOC(=O)C1=C(C)NC(=S)NC1c1cn(-c2ccccc2)nc1-c1ccc([N+](=O)[O-])cc1 (centres undefined) | 92 | 3.13 (≈ 6.75 µM) | >3.2
24 | CCOC(=O)C1=C(C)NC(=S)NC1c1cn(-c2ccccc2)nc1-c1ccc(C)cc1 (centres undefined) | 96 | 1.56 (≈ 3.61 µM) | 5.7
25 | CCOC(=O)C1=C(C)NC(=N)NC1c1cn(-c2ccccc2)nc1-c1ccc(F)cc1 (centres undefined) | 18 |  | 
26 | CCOC(=O)C1=C(C)NC(=N)NC1c1cn(-c2ccccc2)nc1-c1ccc(Cl)cc1 (centres undefined) | 94 | 3.13 (≈ 7.18 µM) | >3.2
27 | CCOC(=O)C1=C(C)NC(=N)NC1c1cn(-c2ccccc2)nc1-c1ccc(Br)cc1 (centres undefined) | 51 |  | 
28 | CCOC(=O)C1=C(C)NC(=N)NC1c1cn(-c2ccccc2)nc1-c1ccc(C)cc1 (centres undefined) | 78 |  | 
29 | COC(=O)C1=C(C)NC(=S)NC1c1cn(-c2ccccc2)nc1-c1ccc(F)cc1 (centres undefined) | 73 |  | 
30 | COC(=O)C1=C(C)NC(=S)NC1c1cn(-c2ccccc2)nc1-c1ccc(Cl)cc1 (centres undefined) | 68 |  | 
31 | NNC(=O)c1ccncc1 [ISONIAZID] |  | 0.03 (≈ 0.219 µM) | 

Source: ChEMBL document CHEMBL1255176, “Novel dihydropyrimidines as a potential new class of antitubercular agents” (2010)
